“And” between values parts separate entries of the source, which are not always exact repeats. Identical values can stand only once. Results filed as inconclusive are left out.
Test system: BDF1 mice, s.c. Lewis lung carcinoma, T/C %
Test: NCI In Vivo Anticancer Drug Screen. Data for tumor model Lewis Lung Carcinoma (subcutaneous) in B6D2F1 (BDF1) mice
Procedure, shortened: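 Readout: survival or tumor size, expressed as treated (T) over vehicle control (C). Transplantable tumor implanted in mice; compound given to the treated group.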

[1] = endpoint: mean tumor weight, dose: 50.0 mg/kg/injection, schedule: Q01DX011 (ip), vehicle: saline, higher = larger tumour
[2] = endpoint: mean tumor weight, dose: 100.0 mg/kg/injection, schedule: Q01DX011 (ip), vehicle: saline, higher = larger tumour

## O=C(O)CP(=O)(O)O
endpoint: median survival time, dose: 4.0 mg/kg/injection, schedule: Q01DX009 (ip), vehicle: saline, higher = longer survival
  T/C: 105 % of control
endpoint: median survival time, dose: 8.0 mg/kg/injection, schedule: Q01DX009 (ip), vehicle: saline, higher = longer survival
  T/C: 97 % of control
endpoint: median survival time, dose: 16.0 mg/kg/injection, schedule: Q01DX009 (ip), vehicle: saline, higher = longer survival
  T/C: 106 % of control
endpoint: median survival time, dose: 32.0 mg/kg/injection, schedule: Q01DX009 (ip), vehicle: saline, higher = longer survival
  T/C: 91 % of control
endpoint: median survival time, dose: 64.0 mg/kg/injection, schedule: Q01DX009 (ip), vehicle: saline, higher = longer survival
  T/C: 87 % of control
endpoint: median survival time, dose: 128.0 mg/kg/injection, schedule: Q01DX009 (ip), vehicle: saline, higher = longer survival
  T/C: 86 % of control

## CC[C@H](c1ccc(O)cc1)[C@@H](CC)c1ccc(O)cc1
endpoint: mean tumor weight, dose: 12.5 mg/kg/injection, schedule: Q01DX011 (ip), vehicle: saline, higher = larger tumour
  T/C: 92 % of control
endpoint: mean tumor weight, dose: 25.0 mg/kg/injection, schedule: Q01DX011 (ip), vehicle: saline, higher = larger tumour
  T/C: 82 % of control
[1]
  T/C: 47 % of control
[2]
  T/C: 16 % of control

## CN(C)N=Nc1n[nH]nc1C(N)=O
endpoint: median tumor weight (est.), dose: 134.5 mg/kg/injection, schedule: Q01DX009 (ip), vehicle: saline, higher = larger tumour
  T/C: 102 % of control
endpoint: median tumor weight (est.), dose: 269.0 mg/kg/injection, schedule: Q01DX009 (ip), vehicle: saline, higher = larger tumour
  T/C: 81 % of control
endpoint: median tumor weight (est.), dose: 538.0 mg/kg/injection, schedule: Q01DX009 (ip), vehicle: saline, higher = larger tumour
  T/C: 79 % of control

## COC(COC(N)=O)C1=C(N2CC2)C(=O)C(C)=C(N2CC2)C1=O (stereo unspecified)
endpoint: median survival time, dose: 0.03 mg/kg/injection, schedule: Q01DX009 (ip), vehicle: Klucel (hydroxypropylcellulose) (HPC), higher = longer survival
  T/C: 96 % of control
endpoint: median survival time, dose: 0.12 mg/kg/injection, schedule: Q01DX009 (ip), vehicle: Klucel (hydroxypropylcellulose) (HPC), higher = longer survival
  T/C: 103 % of control
endpoint: median survival time, dose: 0.25 mg/kg/injection, schedule: Q01DX009 (ip), vehicle: Klucel (hydroxypropylcellulose) (HPC), higher = longer survival
  T/C: 107 % of control
endpoint: median survival time, dose: 0.5 mg/kg/injection, schedule: Q01DX009 (ip), vehicle: Klucel (hydroxypropylcellulose) (HPC), higher = longer survival
  T/C: 119 % of control
endpoint: median survival time, dose: 1.0 mg/kg/injection, schedule: Q01DX009 (ip), vehicle: Klucel (hydroxypropylcellulose) (HPC), higher = longer survival
  T/C: 93 % of control

## [CH3][Sn]([CH3])([CH3])[O]C(=O)CCl
endpoint: median survival time, dose: 0.19 mg/kg/injection, schedule: Q01DX009 (ip), vehicle: saline, higher = longer survival
  T/C: 100 % of control
endpoint: median survival time, dose: 0.38 mg/kg/injection, schedule: Q01DX009 (ip), vehicle: saline, higher = longer survival
  T/C: 104 % of control
endpoint: median survival time, dose: 0.75 mg/kg/injection, schedule: Q01DX009 (ip), vehicle: saline, higher = longer survival
  T/C: 88 % of control and 97 % of control

## C[C@]12C=CC(=O)C=C1CC[C@@H]1[C@@H]2[C@@H](O)C[C@@]2(C)[C@H]1CC[C@]2(O)C(=O)CO
endpoint: mean tumor weight, dose: 12.5 mg/kg/injection, schedule: Q01DX011 (sc), vehicle: steriod suspending solution, higher = larger tumour
  T/C: 81 % of control
endpoint: mean tumor weight, dose: 25.0 mg/kg/injection, schedule: Q01DX011 (sc), vehicle: steriod suspending solution, higher = larger tumour
  T/C: 72 % of control
endpoint: mean tumor weight, dose: 50.0 mg/kg/injection, schedule: Q01DX011 (sc), vehicle: steriod suspending solution, higher = larger tumour
  T/C: 51 % of control
endpoint: mean tumor weight, dose: 100.0 mg/kg/injection, schedule: Q01DX011 (sc), vehicle: steriod suspending solution, higher = larger tumour
  T/C: 14 % of control
endpoint: median survival time, dose: 40.0 mg/kg/injection, schedule: Q02DX009 (ip), vehicle: Klucel (hydroxypropylcellulose) (HPC), higher = longer survival
  T/C: 99 % of control
endpoint: median survival time, dose: 80.0 mg/kg/injection, schedule: Q02DX009 (ip), vehicle: Klucel (hydroxypropylcellulose) (HPC), higher = longer survival
  T/C: 93 % of control
endpoint: median survival time, dose: 320.0 mg/kg/injection, schedule: Q02DX009 (ip), vehicle: Klucel (hydroxypropylcellulose) (HPC), higher = longer survival
  T/C: 86 % of control

## CCN(CC)Cc1c(O)ccc2c3c(c(=O)oc12)CCCC3
endpoint: median survival time, dose: 29.0 mg/kg/injection, schedule: Q01DX009 (ip), vehicle: Klucel (hydroxypropylcellulose) (HPC), higher = longer survival
  T/C: 99 % of control
endpoint: median survival time, dose: 58.0 mg/kg/injection, schedule: Q01DX009 (ip), vehicle: Klucel (hydroxypropylcellulose) (HPC), higher = longer survival
  T/C: 94 % of control

## CC1(C)[C@@H]2CC[C@]1(C)[C@H](O)C2
[1]
  T/C: 100 % of control
[2]
  T/C: 95 % of control
endpoint: mean tumor weight, dose: 200.0 mg/kg/injection, schedule: Q01DX011 (ip), vehicle: saline, higher = larger tumour
  T/C: 79 % of control
endpoint: mean tumor weight, dose: 400.0 mg/kg/injection, schedule: Q01DX011 (ip), vehicle: saline, higher = larger tumour
  T/C: 100 % of control

## CC(C)CNc1ccc(S(=O)(=O)c2ccc(NCC(C)C)c([N+](=O)[O-])c2)cc1[N+](=O)[O-]
endpoint: median survival time, dose: 6.25 mg/kg/injection, schedule: Q01DX009 (ip), vehicle: saline with Tween-80, higher = longer survival
  T/C: 110 % of control
endpoint: median survival time, dose: 12.5 mg/kg/injection, schedule: Q01DX009 (ip), vehicle: saline with Tween-80, higher = longer survival
  T/C: 103 % of control
endpoint: median survival time, dose: 25.0 mg/kg/injection, schedule: Q01DX009 (ip), vehicle: saline with Tween-80, higher = longer survival
  T/C: 109 % of control
endpoint: median survival time, dose: 50.0 mg/kg/injection, schedule: Q01DX009 (ip), vehicle: saline with Tween-80, higher = longer survival
  T/C: 86 % of control

## [I][Hg][CH2]C1COCC([CH2][Hg][I])O1.[I][Hg][CH2]C1COCC([CH2][Hg][I])O1 (stereo unspecified)
endpoint: mean tumor weight, dose: 19.0 mg/kg/injection, schedule: Q01DX011 (ip), vehicle: other, higher = larger tumour
  T/C: 80 % of control
endpoint: mean tumor weight, dose: 29.0 mg/kg/injection, schedule: Q01DX011 (ip), vehicle: other, higher = larger tumour
  T/C: 57 % of control
endpoint: mean tumor weight, dose: 66.0 mg/kg/injection, schedule: Q01DX011 (ip), vehicle: other, higher = larger tumour
  T/C: 36 % of control

— PubChem BioAssay AID270 (DTP/NCI, 2004)
